Among the data in patent US8933070B2, “Methods of targeting PTEN mutant diseases and compositions therefor” (University Health Network, priority 2010, dated 2015) are inhibition values, retold here.

Assay in all cases: Kinase selectivity assay (CEREP, HTRF)
Format in all cases: biochemical
Conditions in all cases: read-out: % Inhibition at 10 μM Concentration

The target in one assay is Syk (Homo sapiens, UniProt P43405). Here is the method:
(§1) The inhibitory activity of selected compounds was evaluated against a panel of 45 different kinase enzymes by CEREP, France. The assays were performed using standard HTRF assay methods as documented by CEREP against the human orthologues of Abl kinase, Akt1/PKBa, AMPKa, BMX kinase (Etk), Brk, CaMK2a, CaMK4, CDC2/CDK1 (cycB), CHK1, CHK2, c-Met kinase, CSK, EphB4 kinase, ERK1, ERK2 (P42mapk), FGFR2 kinase, FGFR4 kinase, FLT-1 kinase (VEGFR1), FLT-3 kinase, Fyn kinase, IGF1R kinase, IRK (InsR), JNK 2, KDR kinase (VEGFR2), Lck kinase, Lyn kinase, MAPKAPK2, MEK1/MAP2K1, p38a kinase, p38d kinase, p38g kinase, PDGFRb kinase, PDK1, PKA, PKCa, PKCb1, PKCb2, PKCg, Ret kinase, ROCK2, RSK2, Src kinase, Syk, and TRKA. The % Inhibition was determined by the formula; % Inhibition=100×(1−(experimental value−background value)/(high activity control−background value)).

In a further assay the target is CHK2 (Homo sapiens, UniProt O96017). The method, then:
as §1

A further assay has as its target PKCbeta 2 (Homo sapiens, UniProt P05771). Here is the method:
as §1

In a further assay the target is Lyn (Homo sapiens, UniProt P07948). Here is the method: as §1
In another assay the target is CHK1 (Homo sapiens, UniProt O14757). The method, then:
as §1

For a further assay, the target named is PKCgamma (Homo sapiens, UniProt P05129). Here is the method: as §1
The next assay deals with CSK (Homo sapiens, UniProt P41240). Here is the method: as §1
Chain of CSK (P41240 whole entry): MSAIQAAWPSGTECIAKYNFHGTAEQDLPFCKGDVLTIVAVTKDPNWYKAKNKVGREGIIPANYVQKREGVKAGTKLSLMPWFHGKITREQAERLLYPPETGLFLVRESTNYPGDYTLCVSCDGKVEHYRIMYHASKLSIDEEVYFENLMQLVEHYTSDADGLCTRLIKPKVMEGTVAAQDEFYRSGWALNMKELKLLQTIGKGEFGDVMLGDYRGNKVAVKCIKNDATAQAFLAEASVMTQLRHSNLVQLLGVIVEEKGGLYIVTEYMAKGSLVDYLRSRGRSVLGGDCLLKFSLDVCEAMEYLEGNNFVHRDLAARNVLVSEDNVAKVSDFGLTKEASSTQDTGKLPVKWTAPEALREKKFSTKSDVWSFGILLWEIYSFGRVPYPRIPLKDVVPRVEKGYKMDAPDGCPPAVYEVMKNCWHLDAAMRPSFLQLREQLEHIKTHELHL
The next assay deals with p38gamma (Homo sapiens, UniProt P53778). The method, then: as §1
Another assay concerns the target Fyn (Homo sapiens, UniProt P06241). Here is the method: as §1
The next assay has as its target p38delta (Homo sapiens, UniProt O15264). Here is the method:
as §1

The next assay has as its target FLT-1 (VEGFR1) (Homo sapiens, UniProt P17948). The method, then:
as §1

For a further assay, the target named is TRKA (Homo sapiens, UniProt P04629). The method, then: as §1
The target in another assay is BMX (Etk) (Homo sapiens, UniProt P51813). The method, then: as §1
The target in another assay is Brk (Homo sapiens, UniProt Q13882). The method, then: as §1
A further assay concerns the target MAPKAPK2 (Homo sapiens, UniProt P49137). Here is the method: as §1
For the next assay, the target named is PDGFRbeta (Homo sapiens, UniProt P09619). The method, then: as §1
The target in a further assay is CDC2/CDK1 (Homo sapiens, UniProt P06493). The method, then:
as §1

The target of the next assay is p38alpha (Homo sapiens, UniProt Q16539). The method, then: as §1
The next assay has as its target RSK2 (Homo sapiens, UniProt P51812). The method, then: as §1
A further assay deals with Src (Homo sapiens, UniProt P12931). The method, then:
as §1

Another assay concerns the target ROCK2 (Homo sapiens, UniProt O75116). Here is the method:
as §1

The target of another assay is IRK (InsR) (Homo sapiens, UniProt P06213). The method, then: as §1
Chain of IRK (InsR) (P06213 28-1382): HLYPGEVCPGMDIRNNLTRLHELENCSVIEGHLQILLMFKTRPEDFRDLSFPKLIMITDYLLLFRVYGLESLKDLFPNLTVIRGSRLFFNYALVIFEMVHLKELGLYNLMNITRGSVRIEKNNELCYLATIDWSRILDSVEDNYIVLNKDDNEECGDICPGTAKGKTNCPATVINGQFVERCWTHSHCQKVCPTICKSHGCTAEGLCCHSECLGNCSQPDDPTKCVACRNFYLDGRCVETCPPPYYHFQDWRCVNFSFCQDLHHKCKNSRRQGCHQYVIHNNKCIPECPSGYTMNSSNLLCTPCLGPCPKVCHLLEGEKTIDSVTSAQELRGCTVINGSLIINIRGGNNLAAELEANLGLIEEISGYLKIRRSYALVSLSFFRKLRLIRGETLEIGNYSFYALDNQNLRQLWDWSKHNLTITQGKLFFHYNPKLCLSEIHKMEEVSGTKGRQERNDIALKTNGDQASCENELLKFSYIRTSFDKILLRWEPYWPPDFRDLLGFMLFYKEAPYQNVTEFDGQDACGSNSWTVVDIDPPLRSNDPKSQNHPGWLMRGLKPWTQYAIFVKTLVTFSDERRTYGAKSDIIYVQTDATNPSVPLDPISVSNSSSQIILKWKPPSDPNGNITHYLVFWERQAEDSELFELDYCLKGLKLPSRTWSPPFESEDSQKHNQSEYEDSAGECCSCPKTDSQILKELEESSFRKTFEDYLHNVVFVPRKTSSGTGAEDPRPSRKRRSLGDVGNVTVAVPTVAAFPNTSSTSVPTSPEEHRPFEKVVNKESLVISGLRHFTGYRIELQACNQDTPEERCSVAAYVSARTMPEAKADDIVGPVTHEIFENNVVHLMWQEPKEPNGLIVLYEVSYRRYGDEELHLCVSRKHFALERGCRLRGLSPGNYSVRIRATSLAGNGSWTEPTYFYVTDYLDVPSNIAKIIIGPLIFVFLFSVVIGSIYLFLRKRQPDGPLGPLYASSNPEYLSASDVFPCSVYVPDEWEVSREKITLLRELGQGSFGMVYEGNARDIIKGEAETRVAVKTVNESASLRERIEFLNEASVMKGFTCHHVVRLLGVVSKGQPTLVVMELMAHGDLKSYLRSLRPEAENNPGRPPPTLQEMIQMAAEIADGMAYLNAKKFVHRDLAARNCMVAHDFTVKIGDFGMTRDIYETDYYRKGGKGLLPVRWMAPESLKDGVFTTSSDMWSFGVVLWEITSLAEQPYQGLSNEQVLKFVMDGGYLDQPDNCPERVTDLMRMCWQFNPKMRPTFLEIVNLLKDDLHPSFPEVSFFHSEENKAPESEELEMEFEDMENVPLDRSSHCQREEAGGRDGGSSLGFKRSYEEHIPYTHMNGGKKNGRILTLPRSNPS
Another assay addresses JNK 2 (Homo sapiens, UniProt P45984). Here is the method:
as §1

The target in another assay is FGFR4 (Homo sapiens, UniProt P22455). The method, then: as §1
Chain of FGFR4 (P22455 22-802): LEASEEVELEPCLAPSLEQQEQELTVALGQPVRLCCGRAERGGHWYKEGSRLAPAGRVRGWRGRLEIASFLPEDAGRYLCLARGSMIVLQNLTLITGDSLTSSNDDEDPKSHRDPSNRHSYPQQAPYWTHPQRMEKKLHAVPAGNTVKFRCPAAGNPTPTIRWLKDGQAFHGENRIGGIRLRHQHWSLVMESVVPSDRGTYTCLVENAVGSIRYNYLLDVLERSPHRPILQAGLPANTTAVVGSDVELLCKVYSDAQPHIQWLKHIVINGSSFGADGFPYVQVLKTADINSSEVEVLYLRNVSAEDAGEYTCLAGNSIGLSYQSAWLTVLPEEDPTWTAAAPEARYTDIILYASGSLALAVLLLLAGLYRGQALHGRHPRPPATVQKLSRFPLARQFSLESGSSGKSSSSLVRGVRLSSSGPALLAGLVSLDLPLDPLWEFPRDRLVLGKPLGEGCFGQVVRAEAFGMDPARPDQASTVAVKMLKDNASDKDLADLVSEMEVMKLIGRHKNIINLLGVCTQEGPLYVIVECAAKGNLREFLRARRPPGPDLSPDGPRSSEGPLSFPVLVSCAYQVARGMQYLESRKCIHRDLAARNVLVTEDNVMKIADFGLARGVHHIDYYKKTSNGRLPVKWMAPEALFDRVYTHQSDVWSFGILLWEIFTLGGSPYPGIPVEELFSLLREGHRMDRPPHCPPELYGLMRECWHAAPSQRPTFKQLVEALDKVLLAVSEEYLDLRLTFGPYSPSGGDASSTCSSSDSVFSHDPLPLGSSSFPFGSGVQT
Another assay has as its target CaMK4 (Homo sapiens, UniProt Q16566). Here is the method: as §1
In a further assay the target is ERK (P42mapk) (Homo sapiens, UniProt P28482). The method, then:
as §1

The target of a further assay is Akt1/PKBalpha (Homo sapiens, UniProt P31749). Here is the method:
as §1

Another assay deals with Abl kinase (Homo sapiens, UniProt P00519). The method, then:
as §1

The next assay addresses PKA (Homo sapiens, UniProt P17612). The method, then:
as §1

In another assay the target is PKCalpha (Homo sapiens, UniProt P17252). Here is the method:
as §1

The target of the next assay is Lck (Homo sapiens, UniProt P06239). The method, then:
as §1

Molecules are shown by their SMILES. Read-outs that look alike come from different tables or passages of the source.

Chain of CaMK4 (Q16566 whole entry): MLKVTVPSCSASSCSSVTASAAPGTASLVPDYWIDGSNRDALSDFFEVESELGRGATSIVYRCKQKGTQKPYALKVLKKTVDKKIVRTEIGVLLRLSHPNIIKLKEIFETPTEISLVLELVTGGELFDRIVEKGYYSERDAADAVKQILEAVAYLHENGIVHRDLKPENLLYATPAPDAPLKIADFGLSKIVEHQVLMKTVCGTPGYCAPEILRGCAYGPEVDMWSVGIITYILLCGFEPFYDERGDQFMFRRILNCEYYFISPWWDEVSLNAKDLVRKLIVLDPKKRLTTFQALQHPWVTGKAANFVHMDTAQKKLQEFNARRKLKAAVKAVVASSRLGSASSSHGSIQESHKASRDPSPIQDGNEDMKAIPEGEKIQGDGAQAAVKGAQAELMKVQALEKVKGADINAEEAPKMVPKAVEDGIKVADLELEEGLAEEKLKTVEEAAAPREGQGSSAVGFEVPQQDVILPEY
Chain of MAPKAPK2 (P49137 whole entry): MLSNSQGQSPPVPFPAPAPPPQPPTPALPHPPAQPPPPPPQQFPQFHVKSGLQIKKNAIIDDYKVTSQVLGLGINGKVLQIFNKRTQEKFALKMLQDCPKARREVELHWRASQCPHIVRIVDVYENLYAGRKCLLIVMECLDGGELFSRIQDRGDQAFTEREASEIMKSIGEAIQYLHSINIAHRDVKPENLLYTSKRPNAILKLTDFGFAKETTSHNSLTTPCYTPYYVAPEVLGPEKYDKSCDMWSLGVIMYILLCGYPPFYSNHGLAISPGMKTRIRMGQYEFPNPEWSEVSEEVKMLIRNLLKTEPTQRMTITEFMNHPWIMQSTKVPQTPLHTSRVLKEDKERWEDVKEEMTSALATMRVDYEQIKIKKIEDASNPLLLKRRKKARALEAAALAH
Chain of Src (P12931 whole entry): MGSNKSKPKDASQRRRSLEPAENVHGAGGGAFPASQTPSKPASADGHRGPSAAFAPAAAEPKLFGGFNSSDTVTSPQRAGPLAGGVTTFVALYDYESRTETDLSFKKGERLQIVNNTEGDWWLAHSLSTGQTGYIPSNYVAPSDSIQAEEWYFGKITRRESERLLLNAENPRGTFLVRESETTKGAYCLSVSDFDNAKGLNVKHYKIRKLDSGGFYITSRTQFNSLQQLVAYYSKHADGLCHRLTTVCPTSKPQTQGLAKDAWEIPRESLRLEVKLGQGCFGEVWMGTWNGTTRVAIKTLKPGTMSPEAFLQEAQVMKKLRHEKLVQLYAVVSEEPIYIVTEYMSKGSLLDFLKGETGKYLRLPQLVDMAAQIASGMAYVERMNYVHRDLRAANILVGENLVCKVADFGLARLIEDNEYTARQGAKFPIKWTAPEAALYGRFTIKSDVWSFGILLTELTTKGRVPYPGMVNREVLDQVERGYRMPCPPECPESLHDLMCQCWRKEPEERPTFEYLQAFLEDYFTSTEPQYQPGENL
Chain of Akt1/PKBalpha (P31749 whole entry): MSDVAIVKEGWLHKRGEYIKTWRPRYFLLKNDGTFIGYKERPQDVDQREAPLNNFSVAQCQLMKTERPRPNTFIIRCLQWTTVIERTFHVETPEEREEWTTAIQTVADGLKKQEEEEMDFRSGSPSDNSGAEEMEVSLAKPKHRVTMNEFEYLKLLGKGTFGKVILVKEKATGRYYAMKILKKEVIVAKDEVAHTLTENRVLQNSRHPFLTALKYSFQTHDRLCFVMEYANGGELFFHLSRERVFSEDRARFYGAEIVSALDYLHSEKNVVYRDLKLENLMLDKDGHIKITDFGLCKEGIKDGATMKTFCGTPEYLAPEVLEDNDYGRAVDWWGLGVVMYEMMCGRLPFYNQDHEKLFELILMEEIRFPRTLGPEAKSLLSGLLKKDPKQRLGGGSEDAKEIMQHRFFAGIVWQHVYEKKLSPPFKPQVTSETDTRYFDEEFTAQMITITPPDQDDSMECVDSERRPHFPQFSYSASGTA
Chain of CHK1 (O14757 whole entry): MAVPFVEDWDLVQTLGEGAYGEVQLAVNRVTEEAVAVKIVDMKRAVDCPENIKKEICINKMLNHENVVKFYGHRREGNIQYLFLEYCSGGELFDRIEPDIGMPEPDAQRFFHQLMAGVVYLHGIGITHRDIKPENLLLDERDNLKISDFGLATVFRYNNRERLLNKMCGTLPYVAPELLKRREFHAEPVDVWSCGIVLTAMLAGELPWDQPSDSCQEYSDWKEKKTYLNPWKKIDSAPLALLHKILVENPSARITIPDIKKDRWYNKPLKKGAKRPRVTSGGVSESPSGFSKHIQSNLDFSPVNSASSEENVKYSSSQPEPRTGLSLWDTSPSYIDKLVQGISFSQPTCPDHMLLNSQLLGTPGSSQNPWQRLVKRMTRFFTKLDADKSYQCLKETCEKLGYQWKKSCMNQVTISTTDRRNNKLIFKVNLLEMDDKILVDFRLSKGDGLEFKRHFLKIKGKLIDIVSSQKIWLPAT

`COc1ccc2c(c1)[C@@]1(C[C@@H]1c1ccc3c(-c4ccc(N5CCN(C)CC5)nc4)n[nH]c3c1)C(=O)N2` (racemic) [Compound 2]: the inhibition at 10 µM on Syk is -1%.
On to `CN(C)Cc1ccc(/C=C/c2n[nH]c3cc([C@H]4C[C@@]45C(=O)Nc4ccccc45)ccc23)cc1` (racemic) [Compound 35], for which the inhibition at 10 µM on CHK2 is -3%; on PKCbeta 2 it was 26%; on Lyn, 86%; at CHK1, 43%; at PKCgamma, 10%; on CSK it was 75%. The inhibition at 10 µM was -5% at p38gamma; 55% at Fyn; 5% on p38delta; 30% on FLT-1 (VEGFR1); 101% at TRKA; 39% at BMX (Etk). In addition, the inhibition at 10 µM at Brk is 53%; at MAPKAPK2 it was 2%; at PDGFRbeta it was 59%; on CDC2/CDK1, 60%; at p38alpha it was -22%; on RSK2 it was 22%. Besides, the inhibition at 10 µM is 51% at Src; 32% at ROCK2; 5% on IRK (InsR); 5% on JNK 2; -12% on FGFR4; -4% at CaMK4. Besides, the inhibition at 10 µM is 2% at ERK (P42mapk); -4% on Akt1/PKBalpha; 100% at Abl kinase; -7% at PKA; 6% at PKCalpha; 100% on Lck.
Take `COc1ccc2c(c1)/C(=C\c1ccc3c(/C=C/c4ccc(N5CCN(C)CC5)nc4)n[nH]c3c1)C(=O)N2` [Compound 3]: the inhibition at 10 µM is -4% at CHK2; 4% at PKCbeta 2; -2% on Lyn; 0% on CHK1; 3% at PKCgamma; 6% on CSK. The inhibition at 10 µM on p38gamma was 12%; on Fyn, 4%; on p38delta, -2%; on FLT-1 (VEGFR1), 30%; on TRKA, 43%; on BMX (Etk) it was 0%. Besides, the inhibition at 10 µM at Brk is -2%; at MAPKAPK2, 6%; at Syk (Syk, 10 μM), -1%; on PDGFRbeta, 14%; on CDC2/CDK1, 11%; at p38alpha, 22%. The inhibition at 10 µM was -4% on RSK2; 26% on Src; -20% at ROCK2; 2% on IRK (InsR); 15% at JNK 2; -30% on FGFR4. The inhibition at 10 µM on CaMK4 is 6%; on ERK (P42mapk), 15%; on Akt1/PKBalpha it was -5%; at Abl kinase, 23%; at PKA, -5%; at PKCalpha it was 7%. In addition, on Lck, the inhibition at 10 µM is 13%.
